According to patent US7238659B2, “Reducing axon degeneration with proteasome inhibitors” (Children's Medical Center Corporation, priority 2003, dated 2007):
Square brackets hold non-standard residues; d marks the D form. Peptide text beside a SMILES is read from it. * marks the point of attachment. Sta = CC(C)C[C@H](N)[C@@H](O)CC(=O)O; Isovaleryl = CC(C)CC(=O)*; Nle = CCCC[C@H](N)C(=O)O; Nva = CCC[C@H](N)C(=O)O; Cbz = O=C(OCc1ccccc1)*; CH2F = FC*

What was measured:
[1] = tested on: corticospinal tract (CST) after midthoracic spinal cord transection with human Schwann cell grafts; assay: Corticospinal Tract (CST) Regeneration Assay; type: in vivo, adult nude rat; parameters: key: dramatically reduce (+++ or ++++) axonal degeneration; dramatically reduce (+++ or ++++) axonal degeneration; conditions: inhibitor in fibrin glue; thirty-five days after grafting
Experimental: Corticospinal Tract (CST) Regeneration Assay. Proteasome inhibitors are assayed for their ability to improve corticospinal tract (CST) regeneration following thoracic spinal cord injury by promoting CST regeneration into human Schwann cell grafts in the methods of Guest et al. (1997, supra). […] Inhibitors are incorporated into a fibrin glue and placed in the same region. Anterograde tracing from the motor cortex using the dextran amine tracers, Fluororuby (FR) and biotinylated dextran amine (BDA), are performed. Thirty-five days after grafting, the CST response is evaluated qualitatively by looking for reduced degeneration of CST fibers in or beyond grafts and quantitatively by constructing camera lucida composites to determine the sprouting index (SI), the position of the maximum termination density (MTD) rostral to the GFAP-defined host/graft interface, and the longitudinal spread (LS) of bulbous end terminals. The latter two measures provide information about axonal die-back.

[2] = tested on: microtubules and neurofilaments of transected axons; assay: Breakdown of axonal cytoskeleton (microtubules, neurofilaments) in transected axons, immunostaining and Western blotting; type: cell-based, rat
Source text: Microtubule destabilization at the initiation stage of Wallerian degeneration in vitro. We next examined which cellular events might correlate with the involvement of UPS and calpains in Wallerian degeneration. We monitored the integrity of different subcellular organelles in the transected axons by both immunocytochemistry and membrane labeling. […] At the protein level, we observed a corresponding cleavage of the neurofilament subunits, neurofilament 160 (NF-160) and neurofilament 68 (NF68) as detected by Western blotting.
Apart from these axonal markers, however, the earliest detectable change appears to occur in the microtubules of transected axons. […] After 12 hr post-axotomy, the stained signals of fragmented microtubule structures weakened gradually and were replaced by many spheroid bodies in severed axons. By 16 hr after axotomy, almost all of the detected signals were spheroid bodies along the tracts of original axons. Even 16 hrs after axotomy when the majority of the axonal NF160 and NF68 has been degraded, most of the tubulin proteins still remained intact and the protein level remained stable according to Western blotting. To provide additional biochemical evidence for such an axotomy-elicited microtubule destabilization in transected axons at early stages of Wallerian degeneration, we separated monomeric (soluble, S) and polymerized (pellet, P) tubulins from transected axons and measured the depolymerization ratio (S/[S+P]) at different time points.
UPS and calpains mediate the breakdown of axonal cytoskeleton components. To explore the link between these cellular and molecular changes during Wallerian degeneration, we next examined whether proteasome inhibitors, calpain inhibitors, and EGTA affect neurofilaments and microtubules in transected axons. […] On the other hand, ALLN only delayed neurofilament degradation, but not the fragmentation of microtubules.

[3] = tested on: transected axons from cultured sympathetic neurons; assay: Wallerian degeneration of transected axons in cultured sympathetic ganglia; type: cell-based, rat; parameters: development of the axonal beading appearance / disintegration of transected axons into debris: dose or concentration left out as unconfirmed; conditions: for protective effect on Wallerian degeneration: added to sympathetic cultures prior to axotomy, EGTA 2 mM
Source text: Inhibiting the ubiquitin-proteasome pathway delays Wallerian degeneration. Wallerian degeneration in most transected mammalian nerve fibers is a complex sequence that entails degradation of the axon, changes in the ensheathing and glial cells, alterations in the blood-tissue barriers, and responses of macrophage-lineage cells (reviewed by Griffin et al., 1995). To study the underlying mechanisms involved in the axon degeneration process, we have used the degeneration of transected axons from cultured primary neurons as models (Buckmaster et al., 1995; George et al., 1995; Wang et al., 2001). In cultured sympathetic ganglia derived from postnatal day 3 (p3) rats, soma-deprived axons undergo a typical degenerative process (herein, George et al., 1995; Wang et al., 2001). The severed axons first appear normal for 6-10 hr, depending upon the duration of culturing prior to axotomy. For sympathetic ganglia that have been cultured for 5 days, the severed axons begin to develop such signs of early degeneration as focal swelling and beading approximately 8 hrs after the axons had been separated from their cell bodies. In most cases, the axons would be completely degenerated and detached after 12-16 hr post-axotomy. Similar degenerative processes were also observed in other types of cultured neurons, such as chicken dorsal root ganglion neurons and retinal ganglion cells.
We examined whether UPS is involved in axotomy-triggered Wallerian degeneration by using specific pharmacological inhibitors. It is known that for UPS to degrade a specific substrate protein, the sequential action of three enzymes, including a ubiquitin activating enzyme (E1), a ubiquitin conjugating enzyme (E2), and a ubiquitin ligase (E3), is required to covalently link ubiquitin to the substrate. Poly-ubiquitinated proteins are then targeted for degradation by the 26S proteasome, which is composed of two 19S proteasome regulatory particles and a 20S core. Substrate ubiquitination may also be reversed by ubiquitin proteases (reviewed by Weissman, 2001). In spite of the existence of multiple E2 and E3 molecules, the final and common step in degrading polyubiquitinated protein substrates is through the 26S proteasome machinery. Consistent with previous evidence for the existence and functioning of the UPS in axons (Campbell and Holt, 2001, 2003), components of UPS machinery, such as subunit C2 of the proteasome 20S, were found in both intact and transected axons from sympathetic neurons. Thus, to perturb UPS activity we used two mechanistically different proteasome inhibitors, MG132, a peptide-based reversible proteasome inhibitor (Rock et al., 1994), and lactacystin, a […] irreversible proteasome inhibitor (Fenteany et al., 1995), both of which had been extensively used to inhibit UPS activity in many different cell types including cultured neurons (Campbell and Holt, 2001, 2003).
24 hr post-axotomy when most of the axon debris has detached from the culture surface in control cultures, proteasome inhibitor-treated explants still retained many axons with some degeneration signs, which remained up to 36 hr post-axotomy.
8 hr post-axotomy, approximately 90% of axons from control HSV-infected explants, and only about 40% of axons from HSV-UBP2-infected ones, developed a beading appearance. However, the protective effects of UBP2 overexpression were less robust than those of the proteasome inhibitors, presumably due to the low expression levels of UBP2.
As previous studies have implicated calpains, a class of calcium-dependent proteases, in Wallerian degeneration (George et al., 1995; Finn et al., 2000), we also examined the contribution of calpain activity in our assays with specific calpain inhibitors such as ALLN (Finn et al., 2000). […] 16 hr after axotomy when most of the transected axons from control cultures degenerated into debris, there were still remaining axon fibers in ALLN-treated cultures.

[4] = tested on: axons of cultured neurons; assay: Axon degeneration elicited by calcium ionophore A23187 or ionomycin; type: cell-based
[5] = tested on: NGF-deprived sympathetic neurons; assay: Neurite degeneration in NGF-deprived sympathetic neurons; type: cell-based; conditions: 36 hr after NGF deprivation
Source text: Proteasome inhibitors also delay neurite degeneration in NGF-deprived sympathetic neurons. In addition to transected axons, axons from neurons that have been deprived of their physiological trophic factors may also undergo a Wallerian-like degeneration process (reviewed by Raff et al., 2002). If the distal part of an axon of a cultured sympathetic neuron is locally deprived of NGF, that part of the axon degenerates while the rest of the cell and axon survives (Campenot, 1982). Moreover, it has been shown that such an NGF deprivation-triggered axon degeneration is delayed in the sympathetic neurons from Wld^s mice (Deckwerth and Johnson, 1994). We thus decided to investigate whether UPS is also involved in NGF deprivation-triggered axon degeneration. Consistent with previous studies (for example, Deckwerth and Johnson, 1994), 36 hr after NGF deprivation, all of the cultured sympathetic neurons underwent a typical apoptosis program with death of cell bodies as detected by nuclei staining with Hoechst 33258 (a few normally stained nuclei are glial cells) and degeneration of axons as indicated by both morphological criteria and immunostaining.

[6] = tested on: axons of cultured neurons; assay: Induction of axon degeneration by cytoskeleton-disrupting agent; type: cell-based
Source text: Thus, among the three major polymer components of the axon cytoskeleton, microtubules play a particularly important role in maintaining the integrity of axons. Consistent is the observation of microtubule disruption as the earliest detectable change during the physiological process of axon pruning in Drosophila metamorphosis (Watts et al., 2003).

SMILES: CC(C)C[C@H](NC(=O)[C@H](CC(C)C)NC(=O)[C@H](CC(C)C)NC(=O)OCc1ccccc1)B(O)O [MG-262, Z-Leu-Leu-Leu-B(OH)2]
- Reduce Degeneration [1]: +++

SMILES: O=C(O)CN(CCOCCOCCN(CC(=O)O)CC(=O)O)CC(=O)O [EGTA]
- degeneration of all examined subcellular markers (destabilization of microtubules and cleavage of neurofilaments) ([2]; transected axons): profoundly retarded
- protective effect on Wallerian degeneration [3]: much stronger protective effect
- axon degeneration elicited by calcium ionophore A23187 or ionomycin [4]: blocked

SMILES: COC(=O)C[C@H](NC(=O)[C@H](C)NC(=O)[C@@H](NC(=O)OCc1ccccc1)C(C)C)C(=O)CF [Z-VAD-fmk] (Cbz-Val-Ala-Asp(OMe)-CH2F)
- axon (neurite) degeneration after NGF deprivation [5]: efficiently prevented
- death of cell bodies after NGF deprivation ([5]; Hoechst 33258 nuclei staining): efficiently prevented
- protective effect on Wallerian degeneration [3]: did not result in any detectable protective effect

SMILES: CC(=O)N[C@@H](CSC(=O)[C@]1([C@@H](O)C(C)C)NC(=O)[C@H](C)[C@@H]1O)C(=O)O [Lactacystin]
- degeneration of all examined subcellular markers (destabilization of microtubules and cleavage of neurofilaments) ([2]; transected axons): profoundly retarded
- Reduce Degeneration [1]: +++
- time post-axotomy until degeneration is shown ([3]; untreated transected axons: early signs 8 hr post-axotomy): 16 h

SMILES: CC(C)CC(=O)N[C@H](C(=O)N[C@H](C(=O)N[C@@H](CC(C)C)[C@@H](O)CC(=O)N[C@@H](C)C(=O)N[C@@H](CC(C)C)[C@@H](O)CC(=O)O)C(C)C)C(C)C [pepstatin.A] (Isovaleryl-VV[Sta]A[Sta]-OH)
- protective effect on Wallerian degeneration [3]: did not result in any detectable protective effect

SMILES: C/C1=C/C(=O)O[C@@H]2C[C@@H](CC[C@H](C)/C=C\CC1)O[C@@](O)([C@@H]1CSC(=O)N1)C2 [latrunculin B]
- induction of axon degeneration [6]: failed to induce axon degeneration

SMILES: CC(C)C[C@H](NC(=O)[C@H](Cc1ccccc1)NC(=O)c1cnccn1)B(O)O [PS-341, bortezomib]
- Reduce Degeneration [1]: ++++

SMILES: CCCC[C@@H](C=O)NC(=O)[C@H](CC(C)C)NC(=O)[C@H](CC(C)C)NC(C)=O [MG-101, Ac-Leu-Leu-Nle-CHO] (Ac-Leu-Leu-[Nle]-aldehyde)
- calpain-dependent degradation of neurofilaments NF160 and NF68 ([2]; Western blotting): completely prevented
- neurofilament degradation ([2]; transected axons): only delayed
- Reduce Degeneration [1]: +++
- development of the axonal beading appearance [3]: did not affect
- disintegration of transected axons into debris ([3]; 16 hr after axotomy): slightly delayed

SMILES: CCC[C@@H](C=O)NC(=O)[C@H](CC(C)C)NC(=O)[C@H](CC(C)C)NC(=O)OCc1ccccc1 [MG-115, Carbobenzoxy-L-leucyl-L-leucyl-L-norvalinal] (Cbz-Leu-Leu-[Nva]-aldehyde)
- Reduce Degeneration [1]: ++++

SMILES: CC(C)[C@H](O)[C@@]12NC(=O)[C@H](C)[C@@H]1OC2=O [PS-519, clasto-Lactacystin β-Lactone]
- Reduce Degeneration [1]: ++++

SMILES: CC(C)C(O)C12NC(=O)C(C)(C)C1OC2=O (stereo not drawn) [α-Methylomuralide, α-Methyl clasto-Lactacystin β-Lactone]
- Reduce Degeneration [1]: ++++
